Laboratory results as given in patent US8927533B2, “Thio derivatives bearing lactams as potent HDAC inhibitors and their uses as medicaments” (SIGMA-TAU Industrie Farmaceutiche Riunite S.p.A., priority 2011, dated 2015).

Experiments:
[1] = test system: HCT116 colon cancer cells; experiment: Cytotoxicity, sulphorodamine B, HCT116; conditions: Homo sapiens, HCT-116, read-out: HCT116 cell line IC50 (μM)
Experimental: (§5) The plates were incubated for 24 h at 37° C., after which they were washed 3 times by removal of the supernatant and addition of PBS. The plates were then incubated for further 48 h at 37° C. 200 μl PBS and 50 μl of cold 80% TCA were added and the plates were incubated on ice for at least 1 h. TCA was removed and the plates were washed 3 times by immersion in distilled-water. They were then dried on paper at 40° C. for 5 min. 200 μl of 0.4% sulphorodamine B in 1% acetic acid were added. The plates were incubated at room temperature for further 30 min. Sulphorodamine B was removed, and the plates were washed 3 times by immersion in 1% acetic acid and were dried on paper and at 40° C. for 5 min. Then 200 μl Tris 10 mM were added. The plates were kept under magnetic stirring for 20 min. Cell survival was determined by means of optical density by a Multiskan spectrofluorimeter at 540 nm. The amount of cells killed was calculated as the percentage decrease in sulphorodamine B binding compared to control cultures.

[2] = test system: NCI-H460 non-small cell lung carcinoma cells; experiment: Cytotoxicity, sulphorodamine B, H460; conditions: Homo sapiens, NCI-H460, read-out: H460 cell line IC50 (μM)
Experimental: as §5

[3] = test system: eleven HDAC isolated human isoforms; experiment: HDAC profiling, whole isoform panel; format: biochemical
Experimental: (§1) Each compound was dissolved in DMSO, and progressively diluted solutions were used for testing. […] Upon its deacetylation, the fluorophore was released given rise to fluorescence emission which was detected by a fluorimeter, and the IC50 values of the compounds were determined by analyzing dose-response inhibition curves.

HDAC6 = molecular target: T1, HDAC6 (Homo sapiens, UniProt Q9UBN7); experiment: HDAC enzymatic assay, HDAC6; format: biochemical
T1 sequence (Q9UBN7 1-1215): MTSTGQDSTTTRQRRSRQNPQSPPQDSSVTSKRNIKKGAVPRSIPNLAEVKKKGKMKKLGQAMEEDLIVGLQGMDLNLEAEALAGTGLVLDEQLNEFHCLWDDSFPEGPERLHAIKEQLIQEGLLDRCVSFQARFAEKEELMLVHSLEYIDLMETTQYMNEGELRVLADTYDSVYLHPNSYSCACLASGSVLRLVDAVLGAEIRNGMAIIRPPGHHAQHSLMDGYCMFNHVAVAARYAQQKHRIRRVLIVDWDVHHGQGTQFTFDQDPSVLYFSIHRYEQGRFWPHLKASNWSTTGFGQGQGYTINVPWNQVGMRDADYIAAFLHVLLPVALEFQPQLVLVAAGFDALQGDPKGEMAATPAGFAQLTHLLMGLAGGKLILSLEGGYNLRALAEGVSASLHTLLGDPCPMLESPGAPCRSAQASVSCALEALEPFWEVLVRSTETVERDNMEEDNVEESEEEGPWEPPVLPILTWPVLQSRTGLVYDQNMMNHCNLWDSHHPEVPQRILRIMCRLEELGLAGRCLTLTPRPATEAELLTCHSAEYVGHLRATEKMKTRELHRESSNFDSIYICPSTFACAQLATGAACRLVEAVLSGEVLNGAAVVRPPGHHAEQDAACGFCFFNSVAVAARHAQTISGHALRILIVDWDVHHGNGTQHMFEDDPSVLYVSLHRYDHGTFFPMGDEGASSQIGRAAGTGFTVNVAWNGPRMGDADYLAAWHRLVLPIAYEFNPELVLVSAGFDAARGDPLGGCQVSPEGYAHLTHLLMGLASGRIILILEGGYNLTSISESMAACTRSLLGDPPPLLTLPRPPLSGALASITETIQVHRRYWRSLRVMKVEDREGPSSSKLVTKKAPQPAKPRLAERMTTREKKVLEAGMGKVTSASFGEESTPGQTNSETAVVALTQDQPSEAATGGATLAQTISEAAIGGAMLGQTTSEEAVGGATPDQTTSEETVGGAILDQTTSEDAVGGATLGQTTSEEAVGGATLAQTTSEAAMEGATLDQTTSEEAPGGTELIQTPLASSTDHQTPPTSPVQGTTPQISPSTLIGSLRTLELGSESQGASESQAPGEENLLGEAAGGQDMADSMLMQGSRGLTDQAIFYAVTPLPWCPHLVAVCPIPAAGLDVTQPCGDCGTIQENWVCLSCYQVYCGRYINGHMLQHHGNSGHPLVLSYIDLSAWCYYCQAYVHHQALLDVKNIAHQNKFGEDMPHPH
Experimental: as §1

NCI-H460 NSCLC = experiment: Antitumour activity, NCI-H460 xenograft (Example 48)
Experimental: (§6) The tested derivatives were administered as a suspension in PBS/DMSO/Cremophor EL (Sigma): 85/10/5 (volume percentage). The antitumour activity was determined by measuring tumour diameters with a Vernier calliper according to the Formula TV=d^2×D/2
(§7) where d and D are the shortest and longest diameters, respectively.
(§8) When tumours reached a volume of about 1000 mm^3, mice were sacrificed by cervical dislocation. The efficacy of the drug was assessed as the tumour volume inhibition according to the Formula reported underneath:
(§9) Body weight recording was carried out to evaluate body weight loss as calculated in the equation underneath:
(§10) Wherein BW day x corresponds to the mean weight at day x of the experiment meanwhile BW day 1 corresponds to the mean weight at the first day of the experiment.

HCT116 colon cancer = experiment: Antitumour activity, HCT116 xenograft, oral (Example 49); format: in vivo, mice; conditions: 100 mg/10 ml/kg p.o., PEG200/DMSO/Cremophor EL
Description: (§2) The experiment of example 48 was repeated with another compound on mice animal model developing HCT116 colon cancer as described above or A2780 ovarian cancer, and administering the drugs solubilised in orally in PEG200/DMSO/Cremophor EL (Sigma): 85/10/5 (volume percentage).

HUT78 T-Lymphoma cells = experiment: Cytotoxicity extended panel, HUT78; format: cell-based; conditions: Homo sapiens, suspension cells, 72 h
Experimental: (§3) Cells were seeded in 96-well tissue culture plates at approximately 10% confluence. They were allowed to attach and recover for at least 24 h. Compounds of the present invention were then added to each well at various concentrations in order to define cell survival inhibition IC50. The plates were incubated for 72 h at 37° C., after which time they were washed 3 times by removal of the supernatant. 200 μl of PBS and 50 μl of cold 80% TCA were added and the plates were incubated on ice for at least 1 h. TCA was removed and the plates were washed 3 times by immersion in distilled water. They were then dried on paper at 40° C. for 5 min. 200 μl of 0.4% sulphorodamine B in 1% acetic acid were added. The plates were incubated at room temperature for further 30 min. Sulphorodamine B was removed, and the plates were washed 3 times by immersion in 1% acetic acid and were dried on paper at 40° C. for 5 min. Then 200 μl Tris 10 mM were added. The plates were kept under magnetic stirring for 20 min. Cell survival was determined by means of optical density by a Multiskan spectrofluorimeter at 540 nm. The amount of cells killed was calculated as the percentage decrease in sulphorodamine B binding compared to control cultures. The IC50 values (reported in Table 5) were calculated with the “ALLFIT” program. […]

[4] = test system: MV4-11 acute monocytic leukemia cells; experiment: Cytotoxicity extended panel, MV4-11; format: cell-based; conditions: Homo sapiens, suspension cells, 72 h
Experimental: as §3

[5] = test system: A2780 ovarian tumour cells; experiment: Cytotoxicity extended panel, A2780; format: cell-based; conditions: Homo sapiens, cell survival, 72 h, sulphorodamine B
Experimental: (§4) Cells were seeded in 96-well tissue culture plates at approximately 10% confluence. They were allowed to attach and recover for at least 24 h. Compounds of the present invention were then added to each well at various concentrations in order to define cell survival inhibition IC50. The plates were incubated for 72 h at 37° C., after which time they were washed 3 times by removal of the supernatant. 200 μl of PBS and 50 μl of cold 80% TCA were added and the plates were incubated on ice for at least 1 h. TCA was removed and the plates were washed 3 times by immersion in distilled water. They were then dried on paper at 40° C. for 5 min. 200 μl of 0.4% sulphorodamine B in 1% acetic acid were added. The plates were incubated at room temperature for further 30 min. Sulphorodamine B was removed, and the plates were washed 3 times by immersion in 1% acetic acid and were dried on paper at 40° C. for 5 min. Then 200 μl Tris 10 mM were added. The plates were kept under magnetic stirring for 20 min. Cell survival was determined by means of optical density by a Multiskan spectrofluorimeter at 540 nm. The amount of cells killed was calculated as the percentage decrease in sulphorodamine B binding compared to control cultures. The IC50 values (reported in Table 5) were calculated with the “ALLFIT” program.

[6] = test system: SKOV-3 ovarian tumour cells; experiment: Cytotoxicity extended panel, SKOV-3; format: cell-based; conditions: Homo sapiens, SK-OV-3, cell survival, 72 h, sulphorodamine B
Experimental: as §4

[7] = test system: MDA-MB231 breast tumour cells; experiment: Cytotoxicity extended panel, MDA-MB231; format: cell-based; conditions: Homo sapiens, MDA-MB-231, cell survival, 72 h, sulphorodamine B
Experimental: as §4

[8] = test system: K562 chronic myeloid leukemia cells; experiment: Cytotoxicity extended panel, K562; format: cell-based; conditions: Homo sapiens, suspension cells, 72 h
Experimental: as §3

[9] = test system: HCT116 colon cancer cells; experiment: Antitumour activity, HCT116 xenograft (Example 48); format: in vivo, CD1 nude mice; conditions: qd×5/w×3w
Experimental: as §6, §7, §8, §9, §10

U937 leukemia cells = experiment: Cytotoxicity extended panel, U937; format: cell-based; conditions: Homo sapiens, U-937, suspension cells, 72 h
Experimental: as §3

[10] = test system: HSC3 head and neck tumour cells; experiment: Cytotoxicity extended panel, HSC3; format: cell-based; conditions: Homo sapiens, HSC-3, cell survival, 72 h, sulphorodamine B
Experimental: as §4

[11] = test system: α-tubulin acetylation in NCI-H460 cells; experiment: Tubulin acetylation, Western Blot; conditions: cytoplasmic extracts
Experimental: (§11) The experiments were conducted using ECL Plus Western blotting detection reagents (from Amersham Biosciences) and the intensity of the bands were analyzed by using a computed phosphoimage analyzer (PhosphoImager; Molecular Dynamics, Sunnyvale, Calif., U.S.A.).

[12] = test system: MCF-7 breast tumour cells; experiment: Cytotoxicity extended panel, MCF-7; format: cell-based; conditions: Homo sapiens, MCF7, cell survival, 72 h, sulphorodamine B
Experimental: as §4

[13] = test system: histone H4 acetylation in NCI-H460 cells; experiment: Histone H4 acetylation, Western Blot
Experimental: as §11

[14] = test system: H929 multiple myeloma cells; experiment: Antitumour activity, H929 xenograft (Example 48); format: in vivo, CD1 nude mice; conditions: qd×5/w×3w
Experimental: as §6, §7, §8, §9, §10

[15] = test system: MDA-MB436 breast tumour cells; experiment: Cytotoxicity extended panel, MDA-MB436; format: cell-based; conditions: Homo sapiens, MDA-MB-436, cell survival, 72 h, sulphorodamine B
Experimental: as §4

A2780 ovarian cancer = experiment: Antitumour activity, A2780 xenograft, oral (Example 49); format: in vivo, mice; conditions: 100 mg/10 ml/kg p.o., PEG200/DMSO/Cremophor EL
Description: as §2

[16] = 100 mg/10 ml/kg i.p., qd×5/w×3w

CC(=O)SCCCCC[C@H](NC(=O)[C@H]1C(=O)NC[C@@H]1c1ccccc1)C(=O)Nc1ccccc1 (relative stereo) [Example 19, Thioacetic acid S—{(S)-6-[((3R*,4S*)-2-oxo-4-phenyl-pyrrolidine-3-carbonyl)-amino]-6-phenylcarbamoyl-hexyl}ester]
IC50 [1]: < 0.5 µM | IC50 [2]: < 0.5 µM

CC(=O)SCCCCC[C@H](NC(=O)[C@H]1C(=O)NC[C@H]1c1ccccc1)C(=O)Nc1ccccc1 (relative stereo) [Example 20, Thioacetic acid S—{(S)-6-[((3R*,4R*)-2-oxo-4-phenyl-pyrrolidine-3-carbonyl)-amino]-6-phenylcarbamoyl-hexyl}ester]
IC50 [1]: 0.5 to 1 µM

CC(=O)SCCCCC[C@H](NC(=O)C1CCCNC1=O)C(=O)Nc1ccccc1 (stereo in doubt) [Example 22, Thioacetic acid S—{(S)-6-[(R*)-(2-oxo-piperidine-3-carbonyl)-amino]-6-phenylcarbamoyl-hexyl}ester]
IC50 [1]: 1 to 10 µM

CC(C)(C)OC(=O)N[C@@H](CCCCCS)C(=O)NC1CCCC1 [((S)-1-cyclopentylcarbamoyl-6-mercapto-hexyl)-carbamic acid tert-butyl ester, reference compound]
HDAC isoform selectivity profile [3]: confirmed its HDAC6 selectivity profile | activity on HDAC6 compared with the described compounds (HDAC6): much lower activity on HDAC6 than most of the herein described compounds

N.N.[Cl][Pt][Cl] [Cisplatin]
TVI % (NCI-H460 NSCLC; 2 mg/10 ml/kg i.p., q4d/w×3w): 56%

CC(=O)SCCCCCCC(=O)Nc1ccccc1 [Compound A, Thioacetic acid S-(6-phenylcarbamoyl-hexyl)ester]
BWL % (HCT116 colon cancer): 0% | TVI % (HCT116 colon cancer): 11%

CC(=O)SCCCCC[C@H](NC(=O)[C@@H]1CCCC(=O)N1)C(=O)Nc1ccccc1 [Example 14, Thioacetic acid S—{(S)-6-[((S)-6-oxo-piperidine-2-carbonyl)-amino]-6-phenylcarbamoyl-hexyl}ester]
IC50 (HUT78 T-Lymphoma cells): 0.48 µM | IC50 [4]: 0.19 µM | IC50 [5]: 0.062 µM | IC50 [6]: 0.38 µM | IC50 [1]: < 0.5 µM | IC50 [7]: 0.23 µM | IC50 [8]: 0.19 µM | BWL % ([9]; 50 mg/10 ml/kg i.p.): 3% | TVI % ([9]; 50 mg/10 ml/kg i.p.): 44% | IC50 (U937 leukemia cells): 0.049 µM | IC50 [10]: 0.77 µM | IC50 [2]: < 0.5 µM | hyper-acetylation of cytoplasmatic α-tubulin [11]: comparable to that observed with the reference compound SAHA | IC50 [12]: 0.19 µM | EC50 ([13]; Homo sapiens, NCI-H460, read-out: EC50 μM H4 acetylation): 0.1 µM | concentration inducing H4 hyper-acetylation ([13]; NCI-H460 cells, Western Blot, 'as low as'): 100 nM | BWL % ([14]; 50 mg/10 ml/kg i.p.): 11% | TVI % ([14]; 50 mg/10 ml/kg i.p.): 30% | BWL % (NCI-H460 NSCLC; 50 mg/10 ml/kg i.p., qd×5/w×3w): 2% | TVI % (NCI-H460 NSCLC; 50 mg/10 ml/kg i.p., qd×5/w×3w): 36% | IC50 [15]: 0.18 µM

CC(=O)SCCCCC[C@H](NC(=O)[C@@H]1CCCC(=O)N1)C(=O)NC1CCCC1 [Example 17, Thioacetic acid S—{(S)-6-[((S)-6-oxo-piperidine-2-carbonyl)-amino]-6-cyclopentylcarbamoyl-hexyl}ester]
IC50 [1]: 1 to 10 µM

O=C(CCCCCCC(=O)Nc1ccccc1)NO [SAHA, suberoylanilide hydroxamic acid, reference compound]
IC50 [8]: 0.13 µM | BWL % ([9]; 100 mg/10 ml/kg p.o.): 0% | TVI % ([9]; 100 mg/10 ml/kg p.o.): 47% | BWL % (A2780 ovarian cancer): 4% | TVI % (A2780 ovarian cancer): 53% | BWL % (HCT116 colon cancer): 1% | TVI % (HCT116 colon cancer): 32% | BWL % ([14]; 100 mg/10 ml/kg i.p.): 3% | TVI % ([14]; 100 mg/10 ml/kg i.p.): 21% | BWL % (NCI-H460 NSCLC; [16]): 0% | TVI % (NCI-H460 NSCLC; [16]): 27%
